Laboratory results published in patent publication US12497359B2, “Acrylamide derivatives” (NRG Therapeutics Ltd, priority 2020, dated 2025).
Values after ≈ are worked out from the molar mass of the structure shown.

What was measured:
mPTP [1] = test: mPTP activity assay in isolated rat liver mitochondria (Ca2+ retention, Fluo5N, FLIPR); type: biochemical; settings: isolated rat liver mitochondria; average value from multiple experiments (n ≥ 2)
Method in brief: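 Freshly isolated female Sprague Dawley rat liver mitochondria in pH 7.4 buffer with 10 mM succinate, 1 μM rotenone and 2 μM Fluo5N, preincubated 10 min at RT with compound (30 μM to 1 nM). CaCl2 bolus (75 μM) added; IC50 from 10 min fluorescence, normalised to DMSO and 5 μM cyclosporin A.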

mPTP [2] = test: mPTP human platelet mitochondria membrane potential flow cytometry assay; type: cell-based; settings: stimulated human platelets
Procedure: The mPTP cell based assay was performed using a mitochondria membrane potential flow cytometry assay in stimulated human platelets. Simulation of platelets results in the rapid influx of Ca^2+ across the platelet membrane. The Ca^2+ is then sequestered by mitochondria until the threshold for mPTP opening is reached, at which point the pore opens and the mitochondrial membrane potential is dissipated. Changes in mitochondria membrane potential due to mPTP opening can be quantified in live platelets using standard mitochondrial membrane potential dyes e.g. 3,3′-dihexyloxacarbocyanine Iodide; DiOC6 (3), enabling pharmacological characterisation of mPTP inhibitors.
Fresh human blood (20 ml) was collected from consented donors into 3.2% sodium citrate. Platelets were isolated by centrifugation at 200 g for 20 min at room temperature, then the platelet rich plasma layer transferred to a fresh tube. Prostaglandin 12 is added to the platelets at a final concentration of 20 ng/ml. After centrifugation at 640 g for 10 min, the platelet rich pellet was resuspended in 4 ml HEPES assay buffer (137 mM NaCl, 2.7 mM KCl, 11.9 mM NaHCO3, 0.42 mM NaH2PO4, 1 mM MgCl2, 5.5 mM glucose, 0.1% bovine serum albumin, 10 mM HEPES adjusted to pH 7.4) and stored on ice.
Test compounds were prepared from 10 mM stocks in DMSO and serially diluted in assay buffer containing 0.4% DMSO and 25 μl transferred into a 96 well plate. Platelets were loaded with the mitochondrial membrane potential dye DiOC6 (3) (3,3′-dihexyloxacarbocyanine Iodide; Invitrogen) at 200 nM for 30 min, then 50 μl plated into each well of the 96 well plate containing diluted test compound and incubated for 15 min. Control wells included DMSO (0.1% final concentration) only or 5 μM cyclosporin A. Platelets were then stimulation with the addition of assay buffer (25 μl) containing CaCl2, alpha thrombin and Convulxin to achieve a final concentrations of 2 mM, 0.017 U/ml and 0.167 μg/ml respectively and incubated for 14 min. The reaction was stopped by the addition of 25 μl 15 mM EDTA in assay buffer. The mitochondrial membrane potential across the population of platelets in each well was then quantified by flow cytometry using a Guava easyCyte 5 Benchtop Flow Cytometer with 3000 events per well. The percentage of platelets with a depolarised mitochondrial membrane potential was calculated for each well. A pIC50 for each compound was then calculated using a standard four parameter curve fit model (GraphPad Prism).

mPTP [3] = test: mPTP activity assay in isolated rat brain mitochondria; type: biochemical; settings: isolated rat brain mitochondria
Procedure: MPTP activity was measured in brain mitochondria freshly isolated from female Sprague Dawley (250 to 300 gram) rats. Anaesthetised rats were perfused in-situ with ˜40 ml cold Dulbecco's Phosphate Buffered Saline (DPBS), then brains dissected and transferred into 30 ml Isolation Buffer (225 mM mannitol, 75 mM sucrose, 1 mM EGTA, adjusted to pH 7.4 with 1 M NaOH). The brain was minced using tweezers and a scalpel into ˜5 mm pieces then transferred into a 50 ml Potterton Dounce homogenization tube on ice containing 10 ml ice-cold isolation buffer (as above with addition of Complete Protease inhibitor; 1 tablet per 50 ml buffer). Homogenisation was carried out using a teflon pestle at 1800 rpm. The slurry was centrifuged at 2000 g for 10 min at 4° C., then the supernatant centrifuged at 12,000 g for 9 min. The pellet was resuspended with a dounce homogeniser in isolation buffer as above but with the addition of 0.02% digitonin, centrifuged at 12,000 g for 11 min and finally resuspended in 5 ml modified isolation buffer (as above but with EGTA reduced to 0.1 mM).
Test compounds were prepared in 384 well polypropylene assay plates as described above for the liver mitochondria assay. A stock mitochondria/Fluo5N assay solution was prepared in 5.6 ml assay buffer (120 mM mannitol, 40 mM MOPS, 5 mM KH2PO4, 60 mM KCl, 10 mM pyruvate, 2 mM malate, 2 mM MgCl2, 20 μM ADP, 1.26 μM oligomycin A, adjusted to pH 7.4) supplemented with Fluo5N pentapotassium salt (2 μM) and 1 ml mitochondria suspension, then transferred (15 μl) into the assay plate containing test compounds and incubated for 10 min at RT. Assay plates were then transferred to a FLIPR Tetra plate reader (Molecular Devices). Dye fluorescence was then measured every 3 sec for a total of 10 min. After 12 sec, a 2.5 μl bolus of Ca2+(75 μM) was added from a source plate containing 675 μM CaCl2 in FLIPR assay buffer. IC50 values for test compounds were calculated using the fluorescence value collected at the 10 min timepoint with % inhibition calculated using the DMSO control and cyclosporin A values at […].

PBS solubility = type: physicochemical; settings: aqueous buffer, kinetic from dmso stock; PBS pH 7.4, 2 hr at 25° C.
Method in brief: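 Compound from 10 mM DMSO stock was added in duplicate to FaSSIF or PBS (pH 7.4) and shaken at 1100 rpm for 2 hr at 25 °C. After filtration, the filtrate was quantified by LC-MS/MS with internal standard against a standard of known concentration.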

[4] = Microsomal clearance assay, rat liver microsomes; type: in vitro ADME; settings: average value from two experiments, read-out: Rat liver microsomes intrinsic clearance (CLint)
Procedure: The microsomal stability of test compounds was evaluated using rat liver microsomes (BioIVT) with and without the cofactors nicotinamide adenine dinucleotide phosphate (NADPH) and uridine-diphosphate-glucuronic acid (UDPGA). Reactions were performed in a final volume of 250 μl pre-warmed (37° C.) 100 mM phosphate buffer containing 5 mM MgCl2, 0.025 mg/ml alamethicin, and 0.5 mg/ml rat liver microsomes. NADPH and UDPGA were included at 1 mM and 2 mM respectively, where appropriate. Reactions were started with the addition of 1 μM (final concentration) test compound. Verapamil was used as the positive control. Solutions were incubated in a water bath at 37° C. and aliquots collected at 0.5, 5, 15, 30 and 60 min. Reactions were stopped by the addition of 5 volumes of cold acetonitrile with internal standards (200 nM caffeine and 100 nM tolbutamide). Samples were centrifuged at 3220 g for 40 min. An aliquot of supernatant was diluted 1:1 In ultra-pure H20, then used for LC-MS/MS analysis. Peak areas were determined from extracted ion chromatograms. The slope value, k, was determined by linear regression of the natural logarithm of the remaining percentage of the parent drug vs. incubation time curve. The in vitro half-life (in vitro t1/2) was determined from the slope value: in vitro t1/2=0.693/k. Conversion of the in vitro t1/2 (min) into the in vitro intrinsic clearance (in vitro CLint, in μL/min/mg protein) was done using the following equation (mean of duplicate determinations): in vitro Clint=(0.693/t1/2)*(Vol of incubation (μl)/amount of protein (mg)).

SMILES: Cc1c(F)cccc1NC(=O)/C=C/c1ccc2cn[nH]c2c1 [Comparative Example 1, (E)-N-(2-methyl-3-fluorophenyl)-3-(1H-indazol-6-yl)acrylamide, reference compound]
- mPTP Rat liver pIC50* (mPTP [1]): 8.0
- mPTP Human platelets pIC50 (mPTP [2]): 6.9
- mPTP Rat brain pIC50 (mPTP [3]): 7.6

SMILES: O=C(/C=C/c1ccc2cn[nH]c2c1)NC1CCc2ccc(F)cc21 (stereo not shown) [Example 6, (E)-N-(6-fluoro-2,3-dihydro-1H-inden-1-yl)-3-(1H-indazol-6-yl)acrylamide]
- mPTP Rat liver pIC50* (mPTP [1]): 6.0
- mPTP Human platelets pIC50 (mPTP [2]): 4.9
- solubility at 2 h (PBS solubility): 9.1 µM (≈ 2.92 µg/mL)
- microsomal CLint at 1 µM [4]: 59 µL/min/mg
